Tests used:
Aβ = conditions: cited from earlier work
Aβ42 = Aβ42 (Homo sapiens, UniProt P05067); conditions: shown previously (35, 36); cited from earlier work
[1] = molecular target: T1, Aβ42-linker-GFP fusion protein (Homo sapiens, UniProt P05067); assay: Cell-free Aβ42-linker-GFP fluorescence assay; format: biochemical; conditions: 10 μM, cell-free system
T1 construct: Wild-type Aβ42-linker-GFP was expressed in the absence (gray) or presence (black) of 10 μM tannic acid; host or cells: cell-free E. coli T7 S30 extract system for circular DNA
Protocol: In one embodiment, the assay uses a vector encoding Aβ42-linker-GFP in a cell-free in vitro transcription and translation system. For example, the basic protocol of the cell-free assay can involve the following steps: 1) Culture 500 ml to 1L of E. coli X1Blue strain harboring Aβ-linker-GFP fusion vector until the density of the suspension reaches O.D 0.9; 2) At O.D 0.9, spin down the cells at 4,000 g for 15 min; 3) Extract the vector using the Qiagen plasmid mega kit. (Cat. No. 12183); 4) After extraction, remove contaminants using phenol extraction; 5) Add E. coli T7 S30 extract system for circular DNA (Promega, Cat. No. L1130) into each well of a 96-well plate; 6) Add control or test substances (e.g. putative drug molecules or vectors that express inhibitory polypeptide) to each well; 7) Add Aβ-linker-GFP fusion vector, and express at RT or at 37 ° C. for 3 hrs; and 8) Measure the fluorescence emission at 510 nm (using an excitation at 490 nm). One of skill in the art will recognize that other transcription/translation systems, or a modified system, can be used. Likewise, the details of the protocol can be varied and optimized to accommodate other amyloidogenic proteins, to enhance the relative fluorescence, to accommodate the needs of the assayist, or a combination thereof.
FIG. 8 illustrates the inhibition of fluorescence of Aβ42-linker-GFP in a cell free system. […]

Sequence of Aβ42 (P05067 672-713 limits assumed, species assumed): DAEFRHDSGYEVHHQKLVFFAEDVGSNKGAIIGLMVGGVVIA
T1 sequence (P05067 with tags, fused parts or gaps): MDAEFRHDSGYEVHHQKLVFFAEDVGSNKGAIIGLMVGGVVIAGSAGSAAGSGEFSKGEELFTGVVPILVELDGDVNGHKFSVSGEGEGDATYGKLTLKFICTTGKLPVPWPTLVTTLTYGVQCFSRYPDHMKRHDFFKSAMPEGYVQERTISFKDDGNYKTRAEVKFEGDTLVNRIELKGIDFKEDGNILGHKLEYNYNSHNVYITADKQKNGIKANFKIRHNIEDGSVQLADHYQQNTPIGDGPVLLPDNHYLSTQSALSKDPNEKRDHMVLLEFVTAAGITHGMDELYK

Row | fluorescence of wild-type Aβ42-linker-GFP / inhibition of aggregation [1] | SMILES | Aβ oligomerization (Aβ) | long-term potentiation (Aβ) | inhibition of Aβ42 aggregation (Aβ42)
1 |  | CCc1nc(Nc2cccc(O)c2)nc(Nc2cccc(O)c2)n1 [RS-0466] | block Aβ oligomerization | rescue long-term potentiation | 
2 |  | NCCc1ccc(O)c(O)c1 [dopamine] |  |  | inhibit A42 aggregation
3 | partially inhibits aggregation | O=C(OC[C@H]1O[C@@H](OC(=O)c2cc(O)c(O)c(OC(=O)c3cc(O)c(O)c(O)c3)c2)[C@H](OC(=O)c2cc(O)c(O)c(OC(=O)c3cc(O)c(O)c(O)c3)c2)[C@@H](OC(=O)c2cc(O)c(O)c(OC(=O)c3cc(O)c(O)c(O)c3)c2)[C@@H]1OC(=O)c1cc(O)c(O)c(OC(=O)c2cc(O)c(O)c(O)c2)c1)c1cc(O)c(O)c(OC(=O)c2cc(O)c(O)c(O)c2)c1 [tannic acid] |  |  | inhibit A42 aggregation

Reference: patent US20070077552A1, “High throughput screen for inhibitors of polypeptide aggregation” (priority 2005, published 2007)
